Source: US7872035B2, “Angiotensin II antagonists” (AstraZeneca AB, priority 2001, dated 2011)

Assays:
[1] = test system: patients suffering from migraine; assay: Pilot double-blind placebo-controlled crossover trial, prophylactic effect in migraine; assay type: in vivo, human
Method: A study in which the effects of the angiotensin II type 1 receptor antagonist candesartan cilexetil (Atacand®) is compared to that of placebo, was carried out to explore the feasability of giving candesartan cilexetil to patients suffering from, or susceptible to, vascular headache conditions, and especially migraine.
The pilot study was a double-blind placebo-controlled crossover trial on the prophylactic effect of the AT II antagonist candesartan cilexetil performed in patients suffering from migraine.
The study provides preliminary data on the feasibility of administering candesartan cilexetil for preventing migraine. It also provides preliminary data on useful concentrations of candesartan cilexetil in this use.

[2] = test system: patients having mild-to-moderate hypertension; settings: hypertensive patients, versus placebo; cited from earlier work

| SMILES | relief of symptoms (migraine) ([1]; one patient with a medical history of migraine, treating themself with Atacand 16 mg, relief subjectively noted) | relief of symptoms (migraine) ([1]; the other patient with a medical history of migraine, relief subjectively noted after treatment with Atacand) | incidence of headache [2] |
| --- | --- | --- | --- |
| CCOc1nc2cccc(C(=O)OC(C)OC(=O)OC3CCCCC3)c2n1Cc1ccc(-c2ccccc2-c2nn[nH]n2)cc1 (stereo not drawn) [candesartan cilexetil] | significant relief of symptoms | significant relief of symptoms | – |
| CCCCC1=NC2(CCCC2)C(=O)N1Cc1ccc(-c2ccccc2-c2nnn[nH]2)cc1 [irbesartan] | – | – | significant reduction |
